Results on 15 compounds are retold here after patent US9497966B2, “Pesticidal compositions and related methods” (DOW AGROSCIENCES LLC, priority 2013, dated 2016).

In data set [1] the test system is Green Peach Aphid (Myzus persicae) (GPA) (MYZUPE). The data set is described as follows: Bioassay for Green Peach Aphid, foliar spray on infested cabbage seedlings. The format is in vivo. The settings on record: 72 h, 200 ppm foliar spray on cabbage, graded after three days, Abbott-corrected % control, read-out: % Control (or Mortality) rating, GPA. How it is done:
Example A: Bioassays for Green Peach Aphid (Myzus persicae) (GPA) (MYZUPE)
Cabbage seedlings grown in 3-inch pots, with 2-3 small (3-5 cm) true leaves, were used as test substrate. The seedlings were infested with 20-50 GPA (wingless adult and nymph stages) one day prior to chemical application. Four pots with individual seedlings were used for each treatment. Test compounds (2 mg) were dissolved in 2 mL of acetonemethanol (1:1) solvent, forming stock solutions of 1000 ppm test compound. The stock solutions were diluted 5× with 0.025% Tween 20 in H2O to obtain the solution at 200 ppm test compound. A hand-held aspirator-type sprayer was used for spraying a solution to both sides of […] leaves until runoff. Reference plants (solvent check) were sprayed with the diluent only containing 20% by volume of acetonemethanol (1:1) solvent. Treated plants were held in a holding room for three days at approximately 25° C. and ambient relative humidity (RH) prior to grading. Evaluation was conducted by counting the number of live aphids per plant under a microscope. Percent control was measured by using Abbott's correction formula (W. S. Abbott, “A Method of Computing the Effectiveness of an Insecticide,” J. Econ. Entomol. 18 (1925), pp. 265-267) as follows. Corrected % Control=100*(X−Y)/X • where • X=No. of live aphids on solvent check plants and • Y=No. of live aphids on treated plants The results are indicated in the table entitled “TABLE 2. Biological Data for Green Peach Aphid (MYZUPE) and Sweetpotato Whitefly-crawler (WF) (BEMITA)” (See Table Section).

Data set [2] relates to Sweetpotato Whitefly-Crawler (Bemisia tabaci) (WF) (BEMITA). The data set is described as follows: Insecticidal test for Sweetpotato Whitefly-Crawler in foliar spray assay on cotton plants. The class given is in vivo. The conditions noted are these: 216 h, 200 ppm foliar spray on cotton, graded after 9 days, Abbott-corrected % control, read-out: % Control (or Mortality) rating, WF. How it is done:
Example B: Insecticidal Test for Sweetpotato Whitefly-Crawler (Bemisia tabaci) (WF) (BEMITA) in Foliar Spray Assay
Cotton plants (Gossypium hirsutum) grown in 3-inch pots, with 1 small (4-5 cm) true leaves, were used as test substrate. The plants were infested with 200-400 whitefly eggs 4-5 days prior to chemical application. Four pots with individual plants were used for each treatment. Test compounds (2 mg) were dissolved in 1 mL of acetone solvent, forming stock solutions of 2000 ppm test compound. The stock solutions were diluted 10× with 0.025% Tween 20 in H2O (diluents) to obtain the solution at 200 ppm test compound. A hand-held aspirator-type sprayer was used for spraying a solution to both sides of cotton leaves until runoff. Reference plants (solvent check) were sprayed with the diluent only containing 10% by volume of acetone solvent. Treated plants were held in a holding room for 9 days at approximately 25° C. and ambient relative humidity (RH) prior to grading. Evaluation was conducted by counting the number of live 3-4 nymph stage per plant under a microscope. Percent control was measured by using Abbott's correction formula (W. S. Abbott, “A Method of Computing the Effectiveness of an Insecticide,” J. Econ. Entomol. 18 (1925), pp. 265-267) as follows. Corrected % Control=100*(X−Y)/X • where • X=No. of live nymphs on solvent check plants and • Y=No. of live nymphs on treated plants.
Biological Data for Green Peach Aphid (MYZUPE) and Sweetpotato Whitefly-crawler (WF) (BEMITA)” (See Table Section).

What is called mortality is the percentage killed. For `CCN(C(=O)C(CSCCC(F)(F)F)=NOC)c1cn(-c2cccnc2)nc1Cl` [Compound F14, N-(3-chloro-1-(pyridin-3-yl)-1H-pyrazol-4-yl)-N-ethyl-2-(methoxyimino)-3-((3,3,3-trifluoropropyl)thio)propanamide], the mortality at 200 ppm in data set [1] and in data set [2] was 80 to 100% throughout. In the case of `CCON=C(CSCCCC(F)(F)F)C(=O)N(CC)c1cn(-c2cccnc2)nc1Cl` [Compound F15, N-(3-Chloro-1-(pyridin-3-yl)-1H-pyrazol-4-yl)-2-(ethoxyimino)-N-ethyl-3-((4,4,4-trifluorobutyl)thio)propanamide], the mortality at 200 ppm in data set [1] and in data set [2] was 80 to 100% throughout. As for `C#CCN(C(=O)C(CSCCC(F)(F)F)=NOCC)c1cn(-c2cccnc2)nc1Cl` [Compound F16, N-(3-Chloro-1-(pyridin-3-yl)-1H-pyrazol-4-yl)-2-(ethoxyimino)-N-(prop-2-yn-1-yl)-3-((3,3,3-trifluoropropyl)thio)propanamide], the mortality at 200 ppm in data set [1] and in data set [2] was 80 to 100% in each case. Consider `CCON=C(CSCC(F)(F)F)C(=O)N(CC)c1cn(-c2cccnc2)nc1Cl` [Compound F17, N-(3-Chloro-1-(pyridin-3-yl)-1H-pyrazol-4-yl)-2-(ethoxyimino)-N-ethyl-3-((2,2,2-trifluoroethyl)thio)propanamide], for which the mortality at 200 ppm in data set [1] and in data set [2] was 80 to 100% throughout. As to `CCN(C(=O)C(C[S+]([O-])CCC(F)(F)F)=NOC)c1cn(-c2cccnc2)nc1Cl` (centres unmarked) [Compound F18, N-(3-Chloro-1-(pyridin-3-yl)-1H-pyrazol-4-yl)-N-ethyl-2-(methoxyimino)-3-((3,3,3-trifluoropropyl)sulfinyl)propanamide], the mortality at 200 ppm in data set [1] and in data set [2] was 80 to 100% in each case. In the case of `C#CCN(C(=O)C(CSCCCC(F)(F)F)=NOC)c1cn(-c2cccnc2)nc1Cl` [Compound F19, N-(3-Chloro-1-(pyridin-3-yl)-1H-pyrazol-4-yl)-2-(methoxyimino)-N-(prop-2-yn-1-yl)-3-((4,4,4-trifluorobutyl)thio)propanamide], the mortality at 200 ppm in data set [1] and in data set [2] was 80 to 100% in each case. Turning to `CCON=C(CS)C(=O)N(CC)c1cn(-c2cccnc2)nc1Cl` [Compound F20, N-(3-chloro-1-(pyridin-3-yl)-1H-pyrazol-4-yl)-2-(ethoxyimino)-N-ethyl-3-mercaptopropanamide], the mortality at 200 ppm lay in the range of 80 to 100% in data set [1] and 0 to 80% in data set [2].

Consider `C#CCN(C(=O)C(CSCCC(F)(F)F)=NOC)c1cn(-c2cccnc2)nc1Cl` [Compound F21, N-(3-Chloro-1-(pyridin-3-yl)-1H-pyrazol-4-yl)-2-(methoxyimino)-N-(prop-2-yn-1-yl)-3-((3,3,3-trifluoropropyl)thio)propanamide], for which the mortality at 200 ppm in data set [1] and in data set [2] was 80 to 100% throughout. In the case of `CCN(C(=O)C(C[S+]([O-])CC1CC1(F)F)=NOC)c1cn(-c2cccnc2)nc1Cl` (centres unmarked) [Compound F22], the mortality at 200 ppm in data set [1] and in data set [2] was 80 to 100% in each case. In the case of `C#CCN(C(=O)C(CS)=NOC)c1cn(-c2cccnc2)nc1Cl` [Compound F23, N-(3-Chloro-1-(pyridin-3-yl)-1H-pyrazol-4-yl)-3-mercapto-2-(methoxyimino)-N-(prop-2-yn-1-yl)propanamide], the mortality at 200 ppm in data set [1] and in data set [2] was 0 to 80% throughout. Regarding `CCON=C(CSCCC(F)(F)F)C(=O)N(CC)c1cn(-c2cccnc2)nc1Cl` [Compound F24, N-(3-chloro-1-(pyridin-3-yl)-1H-pyrazol-4-yl)-2-(ethoxyimino)-N-ethyl-3-((3,3,3-trifluoropropyl)thio)propanamide], the mortality at 200 ppm in data set [1] and in data set [2] was 80 to 100% in each case. As for `CON=C(CSCCC(F)(F)F)C(=O)N(C)c1cn(-c2cccnc2)nc1Cl` [Compound P4, N-(3-chloro-1-(pyridin-3-yl)-1H-pyrazol-4-yl)-2-(methoxyimino)-N-methyl-3-((3,3,3-trifluoropropyl)thio)propanamide], the mortality at 200 ppm in data set [1] and in data set [2] was 80 to 100% in each case. Regarding `CON=C(C[S+]([O-])CCC(F)(F)F)C(=O)N(C)c1cn(-c2cccnc2)nc1Cl` (centres unmarked) [Compound P5, N-(3-chloro-1-(pyridin-3-yl)-1H-pyrazol-4-yl)-2-(methoxyimino)-N-methyl-3-((3,3,3-trifluoropropyl)sulfinyl)propanamide], the mortality at 200 ppm in data set [1] and in data set [2] was 80 to 100% throughout. On to `CON=C(CS(=O)(=O)CCC(F)(F)F)C(=O)N(C)c1cn(-c2cccnc2)nc1Cl` [Compound P47, N-(3-chloro-1-(pyridin-3-yl)-1H-pyrazol-4-yl)-2-(methoxyimino)-N-methyl-3-((3,3,3-trifluoropropyl)sulfonyl)propanamide], for which the mortality at 200 ppm in data set [1] and in data set [2] was 80 to 100% throughout. Broadly, the melting point is the temperature, or range, at which the solid turns liquid. `CON=C(CS)C(=O)N(C)c1cn(-c2cccnc2)nc1Cl` [FA2, N-(3-chloro-1-(pyridin-3-yl)-1H-pyrazol-4-yl)-3-mercapto-2-(methoxyimino)-N-methylpropanamide] had a melting point of 116 to 121 °C.
